According to patent publication US10174052B2, “Quinuclidine compounds as α-7 nicotinic acetylcholine receptor ligands” (BRISTOL-MYERS SQUIBB COMPANY, priority 2014, dated 2019):

Target: T1, α7 nicotinic ACh receptor ion channel expressed in mammalian HEK 293 cells (Rattus norvegicus, UniProt Q05941)
T1 construct: expressed in transfected cells
Experiment: Ca2+-sensitive fluorescence-based assay for α7 nicotinic acetylcholine receptor channel function (FLIPR), agonist activity
Format: cell-based
Conditions: HEK 293 cells, Ca2+ flux
Method: II) A Ca^2+-Sensitive, Fluorescence-Based Assay α-7 for Nicotinic Acetylcholine Receptor Channel Function in Mammalian Cells (“FLIPR”).
Lead compounds are evaluated for agonist activity at the α7 nicotinic ACh receptor ion channel expressed in mammalian HEK 293 cells. Agonist potency and efficacy values are determined from kinetic fluorescence Ca^2+ influx measurements made using a 384 well FLIPR (Fluorescence Image Plate Reader). The utility of fluorescent indicators for measuring changes in intracellular divalent cation concentrations, particularly Ca^2+, for drug discovery endeavors is well documented (Rudiger, R., et al., Nature Reviews, 2003, 4:579-586; Gonzalez J. E., et al., Receptors and Channels, 2002, 8:283-295). In this assay, channel expressing HEK cell lines seeded in 384 well assay plates are loaded with a membrane permeant fluorescent Ca^2+ indicator dye, whose 510 nm green emission signal increases in response to elevation of intracellular Ca^2+ concentration. The basal fluorescence from the cells is monitored in real time, followed by the acute addition of test compounds. If the compound is an agonist at any of the non-selective cation channels, the latter open and allow the movement of extracellular Ca^2+ ions into the cell cytoplasm, where they bind to the Ca^2+ indicator dye, and produce an increase in fluorescence output signal, which is detected by a cooled CCD imaging camera.
Reagents: The acetomethoxy (AM) ester of the Ca^2+ indicator dye Fluo-4 was obtained from InVitrogen, (Carlsbad, Calif.). Acetylcholine and all buffer constituents were purchased from Sigma Chemical Company, St. Louis, Mo. G418 and Minimal Essential Medium were purchased from InVitrogen Life Technologies, Carlsbad, Calif. Fetal bovine serum was purchased from (InVitrogen, Carlsbad, Calif.).
HEK-293 cells were grown in Minimal Essential Medium containing 10% (v/v) fetal bovine serum at 37° C. in a 5% CO2 incubator. HEK-293 cells stably expressing the ion channels were grown in the same medium with the addition of 500 μg/ml G418.
HEK-293 cells expressing the ion channels of interest were plated in 384 well, black-walled, clear-bottomed, poly-D-lysine coated plates at a density of ˜20,000 cells/well in 20 μl of Minimal Essential Medium containing 10% (v/v) fetal bovine serum and incubated for 2 days at 29° C. in a 5% CO2 incubator. Prior to assay, cells were loaded with the Fluo-4 AM ester. Cell loading was accomplished by removing the culture medium and replacing it with 30 μl/well of the AM ester of the dye (5 μM) mixed with Hanks Balanced Salt Solution (#14175-095) containing 20 mM HEPES, 2.5 mM probenecid, 0.5 mM CaCl2, 1 mM MgCl2 and 10 μM atropine. Dye loading was allowed to proceed for 90 minutes at room temperature at which time the dye loading solution was removed and replaced with 40 μl/well of Hanks buffer. Cells loaded with dye were loaded onto a FLIPR384 (Molecular Devices, Sunnyvale, Calif.). Fluo-4 dye was excited using the 488 nm line of an argon laser. Emission was filtered using a 540+/−30 nm bandpass filter. For evaluation of the effects of test compounds using the Ca^2+ flux assay, compounds to be tested were provided in assay ready plates. For nicotinic receptor ion channel expressing cells, the assay was initiated by the addition of 20 μl/well of Hanks buffer containing test compounds. For all assays, data were collected at 1 Hz for 10 seconds (baseline), at which time the compound containing stimulus buffers are added, and further measurements collected at 0.33 Hz for 3 min.
The statistical robustness of the nicotinic receptor Ca^2+ flux assays is determined from blanks and totals wells. The totals wells define maximal channel activation for each compound test plate (Maximum efficacious dose of acetylcholine), and the blanks wells which contain matched DMSO only, define zero channel activation. […]

[1] = FLIPR α7 (EC50, nM), agonist potency
[2] = FLIPR α7 activity rating (EC50, nM), class rating of EC50

T1 sequence (Q05941 23-502): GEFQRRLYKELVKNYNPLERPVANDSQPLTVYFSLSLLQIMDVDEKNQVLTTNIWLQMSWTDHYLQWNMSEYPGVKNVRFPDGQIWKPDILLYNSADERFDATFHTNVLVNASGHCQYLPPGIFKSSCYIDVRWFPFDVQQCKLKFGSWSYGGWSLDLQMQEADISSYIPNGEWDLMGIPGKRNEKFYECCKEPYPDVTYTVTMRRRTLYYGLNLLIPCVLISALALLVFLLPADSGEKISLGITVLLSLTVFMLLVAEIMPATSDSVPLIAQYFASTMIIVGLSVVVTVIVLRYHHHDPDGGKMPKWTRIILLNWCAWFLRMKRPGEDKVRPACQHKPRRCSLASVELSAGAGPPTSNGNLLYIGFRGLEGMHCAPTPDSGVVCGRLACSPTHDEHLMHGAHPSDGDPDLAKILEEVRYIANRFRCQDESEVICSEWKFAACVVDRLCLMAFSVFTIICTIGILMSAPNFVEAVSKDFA

SMILES	EC50 [1] [nM]	EC50 [2] [nM]
Cc1cc2nc3n(c2cc1C)C[C@@]1(CN2CCC1CC2)O3 (single isomer, unassigned) [Example 5a]	65.3	< 100
c1ccc(-c2cn3c(n2)O[C@]2(CN4CCC2CC4)C3)cc1 [Example 21b, (R)-6-Phenyl-3H-1′-azaspiro[imidazo[2,1-b]oxazole-2,3′-bicyclo[2.2.2]octane]]	53	< 100
